{"source": "patent US9113629B2", "about": "“4-amino-6-(4-substituted-phenyl)-picolinates and 6-amino-2-(4-substituted-phenyl)-pyrimidine-4-carboxylates and their use as herbicides” (DOW AGROSCIENCES LLC, priority 2013, dated 2015)", "key": {"[1]": {"tested_on": "Key Broadleaf Weed and Crop Species", "assay": "Post-emergent Test II herbicidal activity (Table 5)", "assay_type": "in vivo", "conditions": "post-emergence, 336 h, post-emergent, 14 days after application; for pest or weed control at 70 g/ha: 70 g ai/ha; for pest or weed control at 140 g/ha: 140 g ai/ha", "in_short": "(§1)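 Injury was rated visually 14 d after treatment on a 0–100% scale against untreated controls. Test compounds, formulated with crop oil concentrate and surfactant and serially diluted down to 1/16× of the top rate, were applied by track sprayer at 187 L/ha onto first- to second-true-leaf seedlings.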"}, "[2]": {"tested_on": "Key Grass and Sedge Weeds as well as Grass Crops", "assay": "Post-emergent Test II herbicidal activity (Table 6)", "assay_type": "in vivo", "conditions": "post-emergence, 336 h; for pest or weed control at 70 g/ha: application rate 70 g ai/ha; for pest or weed control at 140 g/ha: application rate 140 g ai/ha", "in_short": "as §1"}, "[3]": {"conditions": "ABUTH: velvetleaf (Abutilon theophrasti), read-out: Visual Growth Reduction (%) 14 Days After Application ABUTH"}, "[4]": {"conditions": "AMARE: redroot pigweed (Amaranthus retroflexus), read-out: Visual Growth Reduction (%) 14 Days After Application AMARE"}, "[5]": {"conditions": "BRSNN: oilseed-rape, canola (Brassica napus), read-out: Visual Growth Reduction (%) 14 Days After Application BRSNN"}, "[6]": {"conditions": "CHEAL: lambsquarters (Chenopodium album), read-out: Visual Growth Reduction (%) 14 Days After Application CHEAL"}, "[7]": {"conditions": "EPHHL: wild poinsettia (Euphorbia heterophylla), read-out: Visual Growth Reduction (%) 14 Days After Application EPHHL"}, "[8]": {"conditions": "HELAN: sunflower (Helianthus annuus), read-out: Visual Growth Reduction (%) 14 Days After Application HELAN"}, "[9]": {"conditions": "VIOTR: wild pansy (Viola tricolor), read-out: Visual Growth Reduction (%) 14 Days After Application VIOTR"}, "[10]": {"conditions": "Triticum aestivum, TRZSS (wheat), read-out: Visual Growth Reduction (%) 14 Days After Application, TRZSS"}, "[11]": {"conditions": "CYPES: yellow nutsedge (Cyperus esculentus), read-out: Visual Growth Reduction (%) 14 Days After Application, CYPES"}, "[12]": {"conditions": "DIGSA: crabgrass (Digitaria sanguinalis), read-out: Visual Growth Reduction (%) 14 Days After Application, DIGSA"}, "[13]": {"conditions": "ECHCG: barnyardgrass (Echinochloa crus-galli), read-out: Visual Growth Reduction (%) 14 Days After Application, ECHCG"}, "[14]": {"conditions": "ORYSA: rice (Oryza sativa), read-out: Visual Growth Reduction (%) 14 Days After Application, ORYSA"}, "[15]": {"conditions": "SETFA: giant foxtail (Setaria faberi), read-out: Visual Growth Reduction (%) 14 Days After Application, SETFA"}, "[16]": {"conditions": "SORVU: grain sorghum (Sorghum vulgare), read-out: Visual Growth Reduction (%) 14 Days After Application, SORVU"}, "[17]": {"conditions": "ZEAMX: maize, corn (Zea mays), read-out: Visual Growth Reduction (%) 14 Days After Application, ZEAMX"}}, "note": "Read-outs that look alike come from different tables or passages of the source.", "data": [{"smiles": "COC(=O)c1nc(-c2ccc(C#N)cc2)c(C)c(N)c1Cl", "note": "[Compound 83, Methyl 4-amino-3-chloro-6-(4-cyanophenyl)-5-methylpicolinate]", "values": [{"measurement": "pest or weed control at 70 g/ha", "setting": "[1]; [3]", "value": "0 to 29", "unit": "%"}, {"measurement": "pest or weed control at 140 g/ha", "setting": "[1]; [3]", "value": "30 to 44", "unit": "%"}, {"measurement": "pest or weed control at 70 g/ha", "setting": "[1]; [4]", "value": "0 to 29", "unit": "%"}, {"measurement": "pest or weed control at 140 g/ha", "setting": "[1]; [4]", "value": "0 to 29", "unit": "%"}, {"measurement": "pest or weed control at 70 g/ha", "setting": "[1]; [5]", "value": "0 to 29", "unit": "%"}, {"measurement": "pest or weed control at 140 g/ha", "setting": "[1]; [5]", "value": "0 to 29", "unit": "%"}, {"measurement": "pest or weed control at 70 g/ha", "setting": "[1]; [6]", "value": "0 to 29", "unit": "%"}, {"measurement": "pest or weed control at 140 g/ha", "setting": "[1]; [6]", "value": "0 to 29", "unit": "%"}, {"measurement": "pest or weed control at 70 g/ha", "setting": "[1]; [7]", "value": "0 to 29", "unit": "%"}, {"measurement": "pest or weed control at 140 g/ha", "setting": "[1]; [7]", "value": "0 to 29", "unit": "%"}, {"measurement": "pest or weed control at 70 g/ha", "setting": "[1]; [8]", "value": "85 to 94", "unit": "%"}, {"measurement": "pest or weed control at 140 g/ha", "setting": "[1]; [8]", "value": "85 to 94", "unit": "%"}, {"measurement": "pest or weed control at 70 g/ha", "setting": "[1]; [9]", "value": "0 to 29", "unit": "%"}, {"measurement": "pest or weed control at 140 g/ha", "setting": "[1]; [9]", "value": "0 to 29", "unit": "%"}, {"measurement": "pest or weed control at 70 g/ha", "setting": "[2]; [10]", "value": "0 to 29", "unit": "%"}, {"measurement": "pest or weed control at 140 g/ha", "setting": "[2]; [10]", "value": "0 to 29", "unit": "%"}, {"measurement": "pest or weed control at 70 g/ha", "setting": "[2]; [11]", "value": "0 to 29", "unit": "%"}, {"measurement": "pest or weed control at 140 g/ha", "setting": "[2]; [11]", "value": "0 to 29", "unit": "%"}, {"measurement": "pest or weed control at 70 g/ha", "setting": "[2]; [12]", "value": "0 to 29", "unit": "%"}, {"measurement": "pest or weed control at 140 g/ha", "setting": "[2]; [12]", "value": "0 to 29", "unit": "%"}, {"measurement": "pest or weed control at 70 g/ha", "setting": "[2]; [13]", "value": "0 to 29", "unit": "%"}, {"measurement": "pest or weed control at 140 g/ha", "setting": "[2]; [13]", "value": "0 to 29", "unit": "%"}, {"measurement": "pest or weed control at 70 g/ha", "setting": "[2]; [14]", "value": "0 to 29", "unit": "%"}, {"measurement": "pest or weed control at 140 g/ha", "setting": "[2]; [14]", "value": "0 to 29", "unit": "%"}, {"measurement": "pest or weed control at 70 g/ha", "setting": "[2]; [15]", "value": "0 to 29", "unit": "%"}, {"measurement": "pest or weed control at 140 g/ha", "setting": "[2]; [15]", "value": "0 to 29", "unit": "%"}, {"measurement": "pest or weed control at 70 g/ha", "setting": "[2]; [16]", "value": "0 to 29", "unit": "%"}, {"measurement": "pest or weed control at 140 g/ha", "setting": "[2]; [16]", "value": "0 to 29", "unit": "%"}, {"measurement": "pest or weed control at 70 g/ha", "setting": "[2]; [17]", "value": "0 to 29", "unit": "%"}, {"measurement": "pest or weed control at 140 g/ha", "setting": "[2]; [17]", "value": "0 to 29", "unit": "%"}]}]}
